Data from article PMC10762250, “Molecular mechanism of antihistamines recognition and regulation of the histamine H1 receptor” (Nature Communications, 2024).

Experiments:
H1R-H450A [1] = biological target: T1, H1R-H450A (Homo sapiens, UniProt P35367, H450A); conditions: H450A vs wild type
Procedure: (§1) HEK293 cells were seeded into 24-well culture plates (Corning) at a density of 0.1 million per well and incubated overnight at 37 °C with 5% CO2. […] Twenty-four hours after transfection, the culture media was removed, and transfected cells were harvested and washed with Dulbecco’s phosphate buffered saline (DPBS) buffer (Gibco) twice and then resuspended in Hank’s balanced salt solution (HBSS) buffer (Beyotime) at a density of 1.0 × 10^6 cells per milliliter. […] The accumulation of IP1 was calculated according to a standard dose–response curve in GraphPad Prism 8 (GraphPad Software). Data are represented as the mean ± SEM, n = 3 independent samples.

[2] = test system: non-H1R targets, including the potassium channel; conditions: cited from earlier work
H1R-H450A [3] = biological target: T1, H1R-H450A; assay: cell-based
Procedure: as §1

hERG potassium channel = conditions: cited from earlier work
H1R F199^5.47 mutant = test system: H1R F199^5.47 mutant; parameters: method as in PMID 25013351; conditions: F199 single mutation; cited from earlier work
H1R W428^6.48 mutant = test system: H1R W428^6.48 mutant; parameters: method as in PMID 25013351; conditions: W428 single mutation; cited from earlier work
H1R F432^6.52 mutant = test system: H1R F432^6.52 mutant; parameters: method as in PMID 25013351; conditions: F432 single mutation; cited from earlier work
H1R N198A = conditions: cited from earlier work
H1R Y108^3.33 mutant = test system: H1R Y108^3.33 mutant; parameters: method as in PMID 25013351; conditions: Y108 single mutation; cited from earlier work
H1R W158^4.56 mutant = test system: H1R W158^4.56 mutant; parameters: method as in PMID 25013351; conditions: W158 single mutation; cited from earlier work
guinea pig H1R F436A = conditions: cited from earlier work
H1R Y431^6.51 mutant = test system: H1R Y431^6.51 mutant; parameters: method as in PMID 25013351; conditions: Y431 single mutant; cited from earlier work

T1 sequence (P35367 whole entry H450A): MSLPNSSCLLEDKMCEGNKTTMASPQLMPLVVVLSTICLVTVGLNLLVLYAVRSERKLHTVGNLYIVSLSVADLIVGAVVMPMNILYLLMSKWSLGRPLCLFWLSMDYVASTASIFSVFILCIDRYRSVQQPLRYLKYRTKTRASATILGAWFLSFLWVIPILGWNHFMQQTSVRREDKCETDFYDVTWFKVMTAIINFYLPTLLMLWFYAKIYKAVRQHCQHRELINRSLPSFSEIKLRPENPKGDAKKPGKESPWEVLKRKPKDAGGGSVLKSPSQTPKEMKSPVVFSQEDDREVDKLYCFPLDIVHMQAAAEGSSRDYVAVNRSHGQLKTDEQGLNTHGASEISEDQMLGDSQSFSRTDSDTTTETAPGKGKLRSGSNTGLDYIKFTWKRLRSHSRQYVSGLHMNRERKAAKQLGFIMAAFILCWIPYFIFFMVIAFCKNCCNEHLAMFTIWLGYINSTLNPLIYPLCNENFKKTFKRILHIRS

CN(c1nccc(=O)[nH]1)C1CCN(c2nc3ccccc3n2Cc2ccc(F)cc2)CC1 [mizolastine]
Effect of mutation on ability/efficacy to inhibit H1R signaling (H1R-H450A [1]): obviously crippled | Cross-interaction with non-H1R targets [2]: does not cross-interact with any non-H1R targets | Emax (H1R-H450A [3]): 36.1 ± 4.94% | IC50 (H1R-H450A [3]): 5.14 ± 0.13 nM

COc1ccc(CCN2CCC(Nc3nc4ccccc4n3Cc3ccc(F)cc3)CC2)cc1 [astemizole]
hERG potassium channel block (hERG potassium channel): blocks

COc1ccc(CN(CCN(C)C)c2ccccn2)cc1 [mepyramine]
Effect of mutation on H1R affinity (H1R F199^5.47 mutant): abolished | Effect of mutation on H1R affinity (H1R W428^6.48 mutant): abolished | Effect of mutation on H1R affinity (H1R F432^6.52 mutant): abolished | Effect of mutation on affinity (H1R N198A): did not cause obvious affinity loss | Effect of mutation on binding activity (H1R Y108^3.33 mutant): completely disrupted | Effect of mutation on binding activity (H1R W158^4.56 mutant): completely disrupted | Decrease in affinity by mutation (guinea pig H1R F436A): 20 fold | Effect of mutation on binding activity (H1R Y431^6.51 mutant): completely disrupted
